One may read the IC50 as the concentration that inhibits the measured activity by half. Usually inhibition stands for the change of the read-out against control, counted positive when it falls.

Common to all, as to format: biochemical
In one experiment the target is T1, MMP-2 (Homo sapiens, UniProt P08253).
T1 sequence (P08253 110-660): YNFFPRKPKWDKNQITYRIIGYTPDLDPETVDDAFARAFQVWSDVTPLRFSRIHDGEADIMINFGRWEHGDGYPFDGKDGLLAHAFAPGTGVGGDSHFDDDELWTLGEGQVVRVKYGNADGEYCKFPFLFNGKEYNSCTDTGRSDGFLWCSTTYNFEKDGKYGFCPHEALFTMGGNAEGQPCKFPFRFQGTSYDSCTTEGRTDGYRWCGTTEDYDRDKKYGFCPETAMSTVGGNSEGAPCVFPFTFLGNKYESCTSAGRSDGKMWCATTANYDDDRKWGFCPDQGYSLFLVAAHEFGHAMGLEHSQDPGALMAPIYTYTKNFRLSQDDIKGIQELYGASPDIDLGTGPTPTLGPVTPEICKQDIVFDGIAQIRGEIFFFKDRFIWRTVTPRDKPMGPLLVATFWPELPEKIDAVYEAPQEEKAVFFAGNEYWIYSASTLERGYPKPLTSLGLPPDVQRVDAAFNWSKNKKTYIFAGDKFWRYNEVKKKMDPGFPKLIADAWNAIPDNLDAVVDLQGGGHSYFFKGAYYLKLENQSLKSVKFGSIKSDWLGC
The experiment in a line: P218 quenched fluorescence assay (MMP Microfluorometric Profiling Assay), MMP-2. The note with it: for inhibition at 5 µM: read-out: MMP-2 % inhibition at 5 µM, inhibitor at 5 µM, given as I = x %.

In another experiment the target is T2, MMP-9 (Homo sapiens, UniProt P14780).
T2 construct: made in house
T2 sequence (P14780 107-707 limits assumed): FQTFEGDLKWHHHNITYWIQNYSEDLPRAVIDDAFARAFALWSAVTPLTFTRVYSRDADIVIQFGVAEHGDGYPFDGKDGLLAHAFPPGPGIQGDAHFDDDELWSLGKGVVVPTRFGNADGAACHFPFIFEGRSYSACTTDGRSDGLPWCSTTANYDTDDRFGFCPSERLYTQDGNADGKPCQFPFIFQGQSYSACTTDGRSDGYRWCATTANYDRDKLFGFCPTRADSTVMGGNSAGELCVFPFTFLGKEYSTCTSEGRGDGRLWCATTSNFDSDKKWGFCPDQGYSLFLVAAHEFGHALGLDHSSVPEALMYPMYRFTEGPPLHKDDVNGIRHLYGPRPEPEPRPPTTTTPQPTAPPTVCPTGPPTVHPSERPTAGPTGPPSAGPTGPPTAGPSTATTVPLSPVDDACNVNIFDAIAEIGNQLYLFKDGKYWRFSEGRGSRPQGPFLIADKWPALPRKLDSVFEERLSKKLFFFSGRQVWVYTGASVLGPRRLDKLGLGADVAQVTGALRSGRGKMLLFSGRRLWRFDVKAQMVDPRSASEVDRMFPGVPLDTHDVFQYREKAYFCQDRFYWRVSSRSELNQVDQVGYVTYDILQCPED
As to the kind of experiment: P218 quenched fluorescence assay (MMP Microfluorometric Profiling Assay), MMP-9. The note with it: for IC50: P218 substrate 6 µM, 25 min at 37 °C, pH 6.5; for inhibition at 5 µM: read-out: MMP-9 % inhibition at 5 µM, inhibitor at 5 µM, given as I = x %. The text has this:
(§1) The P218 quenched fluorescence assay (Microfluorometric Profiling Assay) is a modification of that originally described by C. G. Knight et al., FEBS Letters, 296, 263-266 (1992) for a related substrate and a variety of matrix metalloproteinases (MMPs) in cuvettes. The assay was run with each exemplary compound of the invention and the three MMPs, MMP-3, MMP-9 and MMP-2, analyzed in parallel, adapted as follows for a 96-well microtitre plate and a Hamilton AT® workstation.
(§2) P218 is a synthetic substrate containing a 4-acetyl-7-methoxycoumarin (MCA) group in the N-terminal position and a 3-(2,4-dinitrophenyl)-(L)-2,3-diaminopropionyl (DPA) group internally. This is a modification of a peptide reported by Knight (1992) that was used as a substrate for matrix metalloproteinases. Once the P218 peptide is cleaved (putative clip site at the Ala-Leu bond), the fluorescence of the MCA group can be detected on a fluorometer with excitation at 328 nm and emission at 393 nm. P218 is currently being produced by BACHEM Bioscience, Inc. exclusively for the Bayer Corp. P218 has the structure: H-MCA-Pro-Lys-Pro-Leu-Ala-Leu-DPA-Ala-Arg-NH2 (MW 1332.2)
Human Recombinant Pro-MMP-9: Human recombinant pro-gelatinase B (pro-MMP-9) derived from U937 cDNA as described by S. M. Wilhelm et al., J. Biol. Chem., 264, 17213-17221 (1989) was expressed as the full-length form using a baculovirus protein expression system. The pro-enzyme was purified using methods previously described by M.S. Hibbs, et al., J. Biol. Chem., 260, 2493-500 (1984).
Activation of Pro-MMP-9 : Pro-MMP-9 (20 µg/mL) in an MMP-9 activation buffer consisting of 50 mM Tris at pH 7.4, 150 mM NaCl, 10 mM CaCl2 and 0.005% Brij-35 was activated by incubation with a 0.5 mM p-aminophenylmercuric acetate (APMA) for 3.5 h at 37 °C. The enzyme was dialyzed against the same buffer to remove APMA.
(§3) Hamilton Microlab AT Plus®: The MMP-profiling assay was performed robotically using a Hamilton MicroLab AT Plus®. The Hamilton was programmed to: (1) serially dilute up to 11 potential inhibitors automatically using a 2.5 mM stock solution of the inhibitor in 100% DMSO; (2) distribute substrate followed by inhibitor into a 96-well Cytofluor plate; and (3) add a single enzyme to the plate with mixing to start the reaction. Subsequent plates for each additional enzyme were prepared automatically by beginning the program at the substrate addition point, remixing the diluted inhibitors, and beginning the reaction by addition of enzyme. In this way, all MMP assays were done using the same inhibitor dilutions.
(§4) Millipore Cytofluor II: Following incubation, the plate was read on a Cytofluor II fluorometric plate reader with excitation at 340 nm and emission at 395 nm with the gain set at 80.
(§5) Microfluorometric Reaction Buffer (MRB): Dilutions of test compounds, enzymes and P218 substrate for the microfluorometric assay were made in microfluorometric reaction buffer (MRB) consisting of 50 mM 2-(N-morpholino)ethanesulfonic acid (MES) at pH 6.5 with 10 mM CaCl2, 150 mM NaCl, 0.005 % Brij-35 and 1% DMSO.
MMP Microfluorometric Profiling Assay. The assay was done with a final P218 concentration of 6 µM, approximately 0.5 to 0.8 nM of activated MMP (one MMP per 96-well plate), and with variable inhibitor concentrations. The Hamilton MicroLab AT Plus® was programmed to serially dilute up to 11 compounds from a 2.5 mM stock (100% DMSO) to 10-times the final compound concentrations in the assay. Initially, the instrument delivered various amounts of microfluorometric reaction buffer (MRB) to a 96-tube rack of 1 mL Marsh dilution tubes. The instrument picked up 20 µL inhibitor (2.5 mM) and mixed it with buffer in row A of the Marsh rack, resulting in a 50 µM inhibitor concentration. The inhibitors were then serially diluted to 10, 5, 1, 0.2, 0.05 and 0.01 µM. […] The instrument re-mixed and loaded 14.5 µL of diluted compound from rows A to G in the Marsh rack to the corresponding rows in the microtiter plate. […]

The target of another experiment is T3, MMP-3 (Homo sapiens, UniProt P08254).
T3 construct: made in house; host or cells: CHO cells
T3 sequence (P08254 100-477): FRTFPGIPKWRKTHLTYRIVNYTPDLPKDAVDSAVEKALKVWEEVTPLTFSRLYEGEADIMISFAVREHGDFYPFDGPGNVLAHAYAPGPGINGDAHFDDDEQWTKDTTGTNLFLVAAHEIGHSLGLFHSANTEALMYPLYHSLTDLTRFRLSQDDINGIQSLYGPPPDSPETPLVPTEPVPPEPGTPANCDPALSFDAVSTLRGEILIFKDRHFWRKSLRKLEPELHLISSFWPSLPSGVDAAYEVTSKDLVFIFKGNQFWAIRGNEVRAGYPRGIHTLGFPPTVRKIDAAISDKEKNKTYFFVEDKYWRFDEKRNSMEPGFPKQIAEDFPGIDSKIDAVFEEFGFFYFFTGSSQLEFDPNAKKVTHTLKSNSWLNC
The experiment in a line: P218 quenched fluorescence assay (MMP Microfluorometric Profiling Assay), MMP-3. The note with it: for IC50: P218 substrate 6 µM, 25 min at 37 °C, pH 6.5; for inhibition at 5 µM: inhibitor at 5 µM, given as I = x %.
Source text: as §1, §2
Recombinant Human CHO Pro-MMP-3: Human CHO pro-stromelysin-257 (pro-MMP-3) was expressed and purified as described by T. J. Housley et al., J. Biol. Chem., 268, 4481-4487 (1993).
Activation of Pro-MMP-3: Pro-MMP-3 at 1.72 µM (100 µg/mL) in an MMP-3 activation buffer consisting of 5 mM Tris at pH 7.5, 5 mM CaCl2, 25 mM NaCl, and 0.005% Brij-35 was activated by incubation with TPCK (N-tosyl-(L)-phenylalanine chloromethyl ketone) trypsin (1:100 w/w to pro-MMP-3) at 25 °C for 30 min. The reaction was stopped by addition of soybean trypsin inhibitor (SBTI; 5:1 w/w to trypsin concentration).
as §3, §4, §5
MMP Microfluorometric Profiling Assay. The assay was done with a final P218 concentration of 6 µM, approximately 0.5 to 0.8 nM of activated MMP (one MMP per 96-well plate), and with variable inhibitor concentrations. The Hamilton MicroLab AT Plus® was programmed to serially dilute up to 11 compounds from a 2.5 mM stock (100% DMSO) to 10-times the final compound concentrations in the assay. Initially, the instrument delivered various amounts of microfluorometric reaction buffer (MRB) to a 96-tube rack of 1 mL Marsh dilution tubes. The instrument picked up 20 µL inhibitor (2.5 mM) and mixed it with buffer in row A of the Marsh rack, resulting in a 50 µM inhibitor concentration. The inhibitors were then serially diluted to 10, 5, 1, 0.2, 0.05 and 0.01 µM. […] The instrument re-mixed and loaded 14.5 µL of diluted compound from rows A to G in the Marsh rack to the corresponding rows in the microtiter plate.

The mark [1] stands for this setting: P218 substrate 6 µM, 25 min at 37 °C, pH 6.5, read-out: MMP-2 IC50.

Where two headings read alike, the source gives them in different places.

Consider `CCCCC#Cc1ccc(C(=O)CC(CCCc2ccccc2)C(=O)O)cc1` (stereo not shown) [Example 2, 4-(4-(hex-1-ynyl)phenyl)-4-oxo-2-(3-phenylpropyl)butyric acid], for which the IC50 at MMP-2 is 460 nM; on MMP-9, 1570 nM; against MMP-3, 1870 nM.

For `O=C(CC(CCN1C(=O)c2ccccc2C1=O)C(=O)O)c1ccc(OCCOCc2ccccc2)cc1` (stereo not shown) [Example 13, 4-(4-(2-benzyloxyethoxy)phenyl)-4-oxo-2-(2-phthalimidoethyl)butyric acid], the IC50 was found to be 53 nM against MMP-2, 355 nM at MMP-9 and 82 nM against MMP-3.

`CC(C)(C)[Si](C)(C)OCCCCC#Cc1ccc(C(=O)CC(CCN2C(=O)c3ccccc3C2=O)C(=O)O)cc1` (stereo not shown) [Compound E, reference compound]: the results for the IC50 on MMP-2 (setting [1]), at MMP-9 and against MMP-3 were 1450 nM, 5050 nM and 5100 nM, respectively.

For the molecule `COc1ccc(C(=O)CC(CCN2C(=O)c3ccccc3C2=O)C(=O)O)cc1` (stereo not shown) [Compound G, 4-(4-methoxyphenyl)-4-oxo-2-(2-phthalimidoethyl)butyric acid, reference compound], the inhibition at 5 µM on MMP-2 came to 48%; on MMP-9, 46%; against MMP-3, 29%.

Regarding `CCCCC#Cc1ccc(C(=O)CC(CCN2C(=O)c3ccccc3C2=O)C(=O)O)cc1` (stereo not shown) [Example 4], the IC50 against MMP-2 came to 42 nM; against MMP-9, 20 nM; on MMP-3, 125 nM.

As for `O=C(CC(CCN1C(=O)c2ccccc2C1=O)C(=O)O)c1ccc(C#CCO)cc1` (stereo not shown) [Example 6, 4-(4-(3-hydroxyprop-1-ynyl)phenyl)-4-oxo-2-(2-phthalimidoethyl)butyric acid], the values for the IC50 against MMP-2, on MMP-9 and on MMP-3 were 130 nM, 76 nM and 565 nM, respectively.

For the molecule `CCCCCCCCCCCCCCOc1ccc(C(=O)CC(CCN2C(=O)c3ccccc3C2=O)C(=O)O)cc1` (stereo not shown) [Compound F, 4-(4-tetradecyloxyphenyl)-4-oxo-2-(2-phthalimidoethyl)butyric acid, reference compound], the figures for the inhibition at 5 µM at MMP-2, at MMP-9 and against MMP-3 were 16%, 6% and 18%, respectively.

`O=C(CC(CCCc1ccccc1)C(=O)O)c1ccc(C#CCCCCO)cc1` (stereo not shown) [Example 3, 4-(4-(6-hydroxyhex-12-ynyl)phenyl)-4-oxo-2-(3-phenylpropyl)butyric acid]: the IC50 at MMP-2 (setting [1]) came to 640 nM; against MMP-9 it was 4350 nM. For the same molecule, 5 µM produced 43% inhibition on MMP-3.

At MMP-9, `CCCCCCCCCCOc1ccc(C(=O)CC(CCN2C(=O)c3ccccc3C2=O)C(=O)O)cc1` (stereo not shown) [Example 12, 4-(4-decyloxyphenyl)-4-oxo-2-(2-phthalimidoethyl) butyric acid] came in with an IC50 of 360 nM.

As for `O=C(CC(CCCc1ccccc1)C(=O)O)c1ccc(C#CCO)cc1` (racemic) [Example 1, 4-(4-(3-hydroxyprop-1-ynyl)phenyl)-4-oxo-2-(3-phenylpropyl)butyric acid], the IC50 came out at 485 nM at MMP-2 (setting [1]), 1850 nM against MMP-9 and 3300 nM against MMP-3.

For the molecule `CCCCCCCOc1ccc(C(=O)CC(CCN2C(=O)c3ccccc3C2=O)C(=O)O)cc1` (stereo not shown) [Example 10, 4-(4-heptyloxyphenyl)-4-oxo-2-(2-phthalimidoethyl) butyric acid], the concentration for half-maximal inhibition (IC50) on MMP-2 came out at 40 nM; on MMP-9, 85 nM; against MMP-3 it was 61 nM.

With `O=C(CC(CCN1C(=O)c2ccccc2C1=O)C(=O)O)c1ccc(Br)cc1` (stereo not shown) [Compound B, 4-(4-bromophenyl)-4-oxo-2-(2-phthalimidoethyl) butyric acid, reference compound], the figures for the IC50 against MMP-2 and against MMP-9 were 2400 nM and 1450 nM, respectively. Besides, at 5 µM the inhibition against MMP-3 was 46%.

On to `CCCCCCc1ccc(C(=O)CC(CCN2C(=O)c3ccccc3C2=O)C(=O)O)cc1` (stereo not shown) [Example 7, 4-(4-hexylphenyl)-4-oxo-2-(2-phthalimidoethyl) butyric acid], for which the IC50 against MMP-2 stood at 295 nM; at MMP-9 it was 400 nM; on MMP-3, 1040 nM.

In the case of `CCCCCCOc1ccc(C(=O)CC(CCN2C(=O)c3ccccc3C2=O)C(=O)O)cc1` (stereo not shown) [Example 11, 4-(4-hexyloxyphenyl)-4-oxo-2-(2-phthalimidoethyl) butyric acid], the IC50 was determined as 79 nM against MMP-2, 68 nM on MMP-9 and 114 nM against MMP-3.

For the molecule `O=C(CC(CCCc1ccccc1)C(=O)O)c1ccccc1` (stereo not shown) [Compound C, 4-phenyl-4-oxo-2-(3-phenylpropyl)butyric acid, reference compound], the inhibition at 5 µM was found to be 36% on MMP-2, 23% at MMP-9 and 20% on MMP-3.

On to `O=C(CC(CCN1C(=O)c2ccccc2C1=O)C(=O)O)c1ccccc1` (stereo not shown) [Compound D, 4-phenyl-4-oxo-2-(2-phthalimidoethyl)butyric acid, reference compound], for which the values for the half-inhibitory concentration (IC50) against MMP-2, at MMP-9 and against MMP-3 were 1400 nM, 1000 nM and 5000 nM, respectively.

(Values after patent EP0923529B1 (Bayer Corporation, priority 1996, dated 1997).)
